In patent US20200087625A1, “METHODS FOR ISOLATING, EXPANDING AND ADMINISTERING CANCER SPECIFIC CD8+ T CELLS” (priority 2017, published 2020):

What was measured:
4T1 cells = test: IV (experimental) lung metastasis model of 4T1 breast cancer; format: in vivo, BALB/c mice
NK cells and MDSC = test: Innate immune cell recruitment to the lungs (flow cytometry); format: in vivo, BALB/c mice; conditions: 1V270 day -1; vs vehicle
Protocol: FIGS. 25A-25F. Innate immune cells, NK cells and dendritic cells are activated following 1V270 therapy and contribute to anti-metastatic effects (A-C) Systemic administration of 1V270 activates dendritic cells and increases CD8^+ cell recruitment in the lung draini lymph node. (A) BALB/c mice (n=S/group) were treated with 1V270 on day −1 and then tumor cells were i.v. administered on day 0. Seven days later, mediastinal lymph node (mLN) cells were stained for dendritic cells (DC; CD45^+CD11c^+MHC classll^+). (B) DCs were further stained for CD80 and CD86. (C) The mLN cells were also stained for central memory CD8^+ T cells (CD3+CD8^+CD44^+CD62L^+), effector memory CD8^+ T cells (CD3+CD8^+CD44^+CD62L^+), and naive CD8^+ T cells (CD3+CD8^+CD44^−CD62L^−). Each dot indicates an individual mouse and horizontal and vertical bars indicate means±SEM. […] Tumor signals were quantified by IVIS. […] On the next day, lung cells were stained for NK markers (CD45^+[…] NKp46^+CD49^+) and analyzed by flow cytometry. […] Tumor signals were analyzed as described above. […]
FIGS. 33A-33C. […] Next day, single cell suspensions derived from the lungs were stained for (A) NK cells (CD45^+CD3^−NKp46^+CD49^+), (B) M-MDSCs (CD45^+CD11b^+Ly6G^−Ly6^high) and (C) PMN-MDSCs (CD45^+CD11b^+Ly6G^+) were analyzed by flow cytometric assay. […]

## CCCCCCCCC=CCCCCCCCC(=O)OCC(COP(=O)(O)OCCNC(=O)c1ccc(Cn2c(=O)[nH]c3c(N)nc(OCCOC)nc32)cc1)OC(=O)CCCCCCCC=CCCCCCCCC (stereo not drawn) [1V270]
4T1 cells; 200 μg i.p., 1 day prior to tumor inoculation
  lung metastasis after a single administration: sufficient to inhibit lung metastasis
4T1 cells; 1V270 2, 20 or 200 μg/injection i.p. days -1, 7, 10, 14, counted day 21
  lung metastasis (number of lung nodules): inhibited lung metastasis in a dose-dependent manner
4T1 cells; i.p., inhibition of lung metastasis
  lowest effective dose: 20 µg
4T1 cells; intranasal 20 or 200 μg/50 μL on days -3, -1, 3, 7, 10
  number of lung nodules: inhibited the number of lung nodules in a dose-dependent manner
NK cells and MDSC
  population of NK cells recruited to the lungs: Significantly increased populations
  population of monocytic-MDSC recruited to the lungs: Significantly increased populations
